Measured values reported in PMC5301048, “Selection and early clinical evaluation of the brain‐penetrant 11β‐hydroxysteroid dehydrogenase type 1 (11β‐HSD1) inhibitor UE2343 (Xanamem™)” (British Journal of Pharmacology, 2017).
Values after ≈ are worked out from the molar mass of the structure shown. Read-outs that look alike come from different tables or passages of the source.

Legend:
[1] = Tissue exposure measurements in rats (plasma and brain); assay type: in vivo; conditions: rat; for Kp / Cmax: male, Sprague Dawley; for Cmax: plasma; for Cmax / Brain Cmax / Plasma Cmax: mean ± SD
Procedure: The circulating plasma levels and tissue distribution of compounds were determined according to the method described in WO2011135276 (Webster et al., 2011a). Animals were group‐housed, had free access to food and water and were maintained in accordance with UK Home Office regulations. The animal work was conducted under UK Home Office Project Licence no. PPL 60/3915.
Compounds were prepared in 0.9% saline containing 2% DMSO (v^.v^‐1) and 38% PEG400 (v^.v^‐1) and administered to male Sprague Dawley rats by oral gavage such that the final concentration of compound was 10 mg·kg^−1. Rats (n = 3 per time point) were killed by decapitation at 1, 4 and 6 h post dosing, and trunk blood and tissues (liver, adipose and brain) were excised. Blood samples at 0.5 and 2 h post dosing were taken by a tail nick from the 4 and 6 h rats respectively.
Compounds were triple extracted from plasma (prepared from blood by a high speed centrifugation step) and spiked with 1 μg of a standard compound using ethyl acetate. Extracts were dried under nitrogen and re‐suspended in 60% methanol/40% ammonium acetate (5 mM).
A known weight of tissue was homogenized in 3 volumes of Krebs buffer. The compound was triple extracted with ethyl acetate from the supernatant of a low speed spin spiked with […] of a standard compound. Extracts were dried under nitrogen and re‐suspended in 60% methanol/40% ammonium acetate (5 mM).
Samples from plasma and tissue were analysed by TSQ Quantum Discovery Tandem Mass Spectrometer and Surveyor Liquid Chromatogram (Thermo, Hemel‐Hempstead, UK). Then 10 μL of each sample was injected in a mobile phase consisting of 60% methanol/40% ammonium acetate (5 mM) at a flow rate of 0.5 mL·min^−1. The column used was a BDS hypersil C18, 50 × 2.1 mm with a 5 μm particle size.
Each compound was tuned with a spray voltage of 3000 V and a capillary temperature of 300°C, and values for tube lens, CID and product ions were determined. The peak area for each compound and for the internal standard was determined, and the concentration of compound ^. g^‐1 of tissue or mL^‐1 of plasma was calculated by comparison of the peak area ratio to a standard curve.

human 11β‐HSD1 = molecular target: T1, human 11β‐HSD1 (Homo sapiens, UniProt P28845); assay: Inhibition of human 11β-HSD1 in stably transfected HEK293 cells; assay type: cell-based; conditions: HEK293 cells; mean ± SD [n]; read-out: Human 11β‐HSD1 IC50 in HEK293 cells
T1 construct: a construct containing the full‐length gene coding for the human 11β‐HSD1 enzyme; expressed in transfected cells; host or cells: HEK293
T1 sequence (P28845 whole entry): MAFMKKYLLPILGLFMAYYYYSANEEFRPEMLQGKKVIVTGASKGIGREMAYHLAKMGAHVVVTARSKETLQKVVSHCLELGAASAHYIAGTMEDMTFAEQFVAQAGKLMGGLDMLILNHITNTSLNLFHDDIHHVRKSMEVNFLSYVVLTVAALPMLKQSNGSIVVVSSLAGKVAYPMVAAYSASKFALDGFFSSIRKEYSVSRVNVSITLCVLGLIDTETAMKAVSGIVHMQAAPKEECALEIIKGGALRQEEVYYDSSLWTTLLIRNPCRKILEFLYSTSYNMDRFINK
Procedure: Inhibition of human 11β‐HSD1 was determined in HEK293 cells stably transfected with a construct containing the full‐length gene coding for the human 11β‐HSD1 enzyme according to the protocol described by Sooy et al., 2010.

in vivo = conditions: male, Sprague Dawley, rat
Procedure: Pharmacokinetic studies were carried out at Quotient Bioresearch, UK. For both i.v. and p.o. administration, compounds were prepared in 0.9% saline containing 2% DMSO (v^.v^‐1) and 38% PEG400 (v^.v^‐1). Solutions were passed through 0.22 μm filters prior to administration. Animals were given ad libitum access to food and water throughout the study. For i.v. administration three male Sprague Dawley rats each received 1 mg·kg^−1 of compound by tail vein injection (dose volume 5 mL·kg^−1). Serial blood samples were taken from a lateral tail vein 5, 15, 30 min, 1, 2, 4, 6 and 8 h post i.v. administration, and stored in individual EDTA containers. Blood samples were flash frozen in liquid nitrogen and stored at −20°C prior to analysis. For p.o. administration, five male Sprague Dawley rats were dosed with compound at 5 mg·kg^−1 (dose volume 10 mL·kg^−1). Serial blood samples were taken from a lateral tail vein 15, 30 min, 1, 2, 4, 6 and 8 h post p.o. administration, and stored in individual EDTA containers. Blood samples were flash frozen in liquid nitrogen and stored at −20°C prior to analysis. Blood samples were thawed at ambient temperature and vortex mixed thoroughly. A representative aliquot of each blood sample was diluted 1:1 v^.v^‐1 with HPLC grade water prior to protein precipitation with acetonitrile containing diazepam internal standard (blood/water: acetonitrile ratio was 1:4 v^ v^‐1). Following vortex mixing and centrifugation (4°C, 15 min, 17 000 x g) a 100 μL aliquot of supernatant was diluted by addition of 50 μL HPLC grade water in a well of a 96‐well midi‐eppendorf plate. The plate was sealed and shaken on a plate shaker to ensure sample homogeneity. Samples were assayed against a series of matrix matched calibration curve standards by LC–MS/MS using a Sciex 3000 mass spectrometer. Pharmacokinetic parameters were derived by non‐compartmental analysis using WinNonLin pharmacokinetic software.

[2] = Aqueous solubility at pH 7.4; assay type: physicochemical; conditions: thermodynamic from solid, pH 7.4, room temperature, mean ± SD [n]
Procedure: The concentration was quantified by HPLC with reference to a standard calibration curve. The solubility was calculated using the peak areas determined by integration of the peak found at the same retention time as the principal peak in the standard injection.

[3] = Plasma protein binding, human plasma; assay type: in vitro ADME; conditions: for Plasma protein binding (% unbound), human: mean ± SD [n]
Procedure: Plasma protein binding was determined using pooled human plasma according to the method described in WO2011135276 (Webster et al., 2011a).

[4] = Plasma protein binding, dog plasma; assay type: in vitro ADME; conditions: mean ± SD [n]
[5] = Pharmacokinetics in dog (i.v. and p.o.); assay type: in vivo; conditions: Beagle, plasma
Procedure: Pharmacokinetic studies were carried out at Charles River, UK. For both i.v. and p.o. administration, compounds were prepared in 0.9% saline containing 2% DMSO (v^.v^‐1) and 38% PEG400 (v^.v^‐1). Solutions were passed through 0.22 μm filters prior to administration. Three Beagle dogs each received a single i.v. injection of compound 4 at a dose level of 1 mg·kg^−1. Following a washout period of 1 week, each animal received a single p.o. dose of compound 4 at a dose level of 5 mg·kg^−1.
After a washout period of 6 weeks, the same three dogs each received a single i.v. injection of compound 7 at a dose level of 1 mg·kg^−1. Following a washout period of 1 week, each animal received a single p.o. dose of compound 7 at a dose level of 5 mg·kg^−1.
Plasma samples were obtained up to 24 h post dose administration, and the concentration of each test item in plasma was determined using LC–MS/MS. Pharmacokinetic parameters were derived by non‐compartmental analysis using WinNonLin pharmacokinetic software.

[6] = Plasma protein binding, rat plasma; assay type: in vitro ADME; conditions: mean ± SD [n]
[7] = Microsomal stability, rat liver microsomes; assay type: in vitro ADME; conditions: mean ± SD [n]
Procedure: (§1) Microsomal stability was determined using pooled human, rat or dog liver microsomes according to the method described in WO2011135276 (Webster et al., 2011a).

[8] = Microsomal stability, human liver microsomes; assay type: in vitro ADME; conditions: mean ± SD [n]
Procedure: as §1

hERG K+ channel = molecular target: T2, hERG K+ channel (Homo sapiens, UniProt Q12809); assay: hERG inhibition, IonWorks Quattro patch clamp; assay type: cell-based; conditions: Chinese hamster lung cells expressing hERG; mean ± SD [n]
T2 construct: Chinese hamster lung cell line stably expressing the full length hERG channel; host or cells: Chinese hamster lung cell line
T2 sequence (Q12809 whole entry): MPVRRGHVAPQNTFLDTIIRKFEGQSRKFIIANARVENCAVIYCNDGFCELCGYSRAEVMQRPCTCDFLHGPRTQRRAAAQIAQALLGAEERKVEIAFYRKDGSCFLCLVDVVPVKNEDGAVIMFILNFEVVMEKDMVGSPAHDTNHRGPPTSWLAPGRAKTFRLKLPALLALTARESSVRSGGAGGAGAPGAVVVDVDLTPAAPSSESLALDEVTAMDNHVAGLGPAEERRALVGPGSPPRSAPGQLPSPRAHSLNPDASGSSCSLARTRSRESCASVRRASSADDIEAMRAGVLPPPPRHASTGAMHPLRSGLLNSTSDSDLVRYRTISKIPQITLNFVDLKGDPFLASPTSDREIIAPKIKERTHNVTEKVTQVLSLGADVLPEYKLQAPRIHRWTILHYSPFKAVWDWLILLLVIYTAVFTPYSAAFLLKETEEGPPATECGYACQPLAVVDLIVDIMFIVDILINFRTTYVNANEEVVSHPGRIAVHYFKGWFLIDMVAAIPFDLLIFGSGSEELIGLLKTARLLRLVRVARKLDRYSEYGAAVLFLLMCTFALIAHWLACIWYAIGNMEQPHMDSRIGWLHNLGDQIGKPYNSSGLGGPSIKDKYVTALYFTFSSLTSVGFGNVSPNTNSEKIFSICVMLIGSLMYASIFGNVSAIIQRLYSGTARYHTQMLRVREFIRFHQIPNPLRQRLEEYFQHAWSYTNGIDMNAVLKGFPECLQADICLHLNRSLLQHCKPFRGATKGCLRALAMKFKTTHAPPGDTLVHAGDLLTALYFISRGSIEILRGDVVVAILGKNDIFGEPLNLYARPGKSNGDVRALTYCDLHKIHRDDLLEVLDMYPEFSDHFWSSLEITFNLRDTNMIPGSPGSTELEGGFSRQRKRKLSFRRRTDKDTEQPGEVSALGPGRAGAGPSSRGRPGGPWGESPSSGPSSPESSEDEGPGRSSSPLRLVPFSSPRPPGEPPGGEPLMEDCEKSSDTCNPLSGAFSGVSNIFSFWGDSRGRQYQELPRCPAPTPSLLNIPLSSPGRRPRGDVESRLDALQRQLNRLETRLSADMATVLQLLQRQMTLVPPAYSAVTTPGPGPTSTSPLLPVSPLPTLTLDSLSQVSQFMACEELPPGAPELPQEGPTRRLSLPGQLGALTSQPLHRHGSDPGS
Procedure: Testing was performed by Essen Instruments, Hertfordshire, UK. Compounds were tested for inhibition of the human ether a go‐go related gene (hERG) K+ channel in a Chinese hamster lung cell line stably expressing the full length hERG channel. Single cell ionic currents were measured in the perforated patch clamp configuration at room temperature using an IonWorks Quattro instrument. Eight‐point concentration–response curves were generated using threefold serial dilutions from the maximum final assay concentration. IC50 values were obtained from a four‐parameter logistic fit of the % inhibition data.

[9] = Microsomal stability, dog liver microsomes; assay type: in vitro ADME; conditions: mean ± SD [n]
Procedure: as §1

[10] = brain and plasma, po, 10 mg/kg, 10 mg·kg^−1 oral gavage, read-out: Brain : plasma ratio
[11] = po, 10 mg/kg, 10 mg·kg^−1 oral gavage

SMILES | Kp [1, 10] | Cmax [1, 11] | Brain Cmax ([1]; 10 mg·kg^−1 oral gavage) | IC50 (human 11β‐HSD1) | also measured
O=C(c1csc(-c2cn[nH]c2)c1)N1C2CCC1CC(O)(c1ccccc1)C2 (stereo not shown) [compound 1] | 0.07 | 419 ± 28 ng/mL | 29 ± 10 ng/mL | 22 ± 2 nM | bioavailability (in vivo): 23%; half-life (in vivo): 0.9 ± 0.1 h; clearance (in vivo; iv, 1 mg/kg): 34 ± 22 mL/min/kg; solubility ([2]; aqueous buffer): 6 µg/mL (≈ 15.8 µM); Plasma protein binding (% unbound), human [3]: 10±0 % unbound
O=C(c1csc(-c2cn[nH]c2)c1)N1C2CCC1CC(O)(c1ccccn1)C2 (stereo not shown) [compound 2] | 0.02 | 1270 ± 330 ng/mL | 31 ± 12 ng/mL | 26 ± 8 nM | –
O=C(c1csc(-c2cn[nH]c2)c1)N1C2CCC1CC(O)(c1ncccc1Cl)C2 (stereo not shown) [compound 3] | 0.31 | 115 ± 48 ng/mL | 36 ± 12 ng/mL | 12 nM | –
O=C(c1csc(-c2cn[nH]c2)c1)N1C2CCC1CC(O)(c1cnccn1)C2 (stereo not shown) [compound 5] | 0.03 | 589 ± 161 ng/mL | 19 ± 17 ng/mL | 37 ± 3 nM | –
O=C(c1csc(-c2cn[nH]c2)c1)N1C2CCC1CC(F)(c1ccccn1)C2 (stereo not shown) [compound 6] | – | – | 108 ± 54 ng/mL | 22 ± 10 nM | Brain : plasma ratio ([1]; 10 mg·kg^−1 oral gavage): 0.27; Plasma Cmax ([1]; 10 mg·kg^−1 oral gavage): 399 ± 99 ng/mL
O=C(c1csc(-c2cn[nH]c2)c1)N1C2CCC1CC(F)(c1ccccn1)C2 (stereo not shown) [compound 7] | 0.24 | – | 374 ± 184 ng/mL | 7 ± 4 nM | Kp ([1]; brain (relative to free plasma), oral, 10 mg·kg^−1, rat, rat plasma protein binding taken into account, read-out: brain : plasma free ratio): 2.45; Plasma Cmax ([1]; 10 mg·kg^−1 oral gavage): 1526 ± 212 ng/mL; Plasma protein binding (% unbound), dog [4]: 11 ± 0 [1] % unbound; solubility ([2]; aqueous phosphate buffer): 6 µg/mL (≈ 15.7 µM); clearance ([5]; iv, i.v. 1 mg·kg^−1, mean ± SD): 8.68 ± 2.03 mL/min/kg; half-life ([5]; mean ± SD): 3.21 ± 1.61 h; Cmax ([5]; po, p.o. 5 mg·kg^−1, mean ± SD): 3100 ± 908 ng/mL; AUC ([5]; po, p.o. 5 mg·kg^−1, mean ± SD, read-out: Oral AUC(0➔∞)): 9210 ± 2000 ng·h/mL; bioavailability ([5]; po, p.o. 5 mg·kg^−1 vs i.v. 1 mg·kg^−1, mean ± SD): 90 ± 40%; Plasma protein binding (% unbound), rat [6]: 10 ± 1 [2] % unbound; Liver microsomal stability (% parent at 30 min), rat [7]: 45 ± 5 [3] % parent at 30 min; Liver microsomal stability (% parent at 30 min), human [8]: 51 ± 3 [3] % parent at 30 min; Plasma protein binding (% unbound), human [3]: 11 ± 2 [2] % unbound; free fraction in plasma relative to the 3‐endo isomer (compound 6) ([3]; species not stated, in words): twofold greater; IC50 (hERG K+ channel): 3100 ± 600 nM; Liver microsomal stability (% parent at 30 min), dog [9]: 74 ± 1 [3] % parent at 30 min
N#CC1(c2ccccn2)CC2CCC(C1)N2C(=O)c1csc(-c2cn[nH]c2)c1 (stereo not shown) [compound 8] | 0.03 | 291 ± 74 ng/mL | 9 ± 3 ng/mL | 15 nM | –
N#CC1(c2ncccn2)CC2CCC(C1)N2C(=O)c1csc(-c2cn[nH]c2)c1 (stereo not shown) [compound 9] | 0.07 | 230 ± 33 ng/mL | 15 ± 1 ng/mL | 13 ± 3 nM | –
